The source of these data is patent US20080312344A1, “DENDRIMERS MULTIVALENTLY SUBSTITUTED WITH ACTIVE GROUPS” (priority 2005, published 2008).

The structures appear in SMILES notation.

The test system of assay [1] is Candida albicans (strain CBS 562). As to the kind of experiment: adhesion inhibition of Candida albicans. It counts as cell-based. The conditions noted are these: CBS562. How it is done:
Di-, tetra- and octavalent GINAc-linked “click” glycodendrimers as depicted herein-below were evaluated as adhesion inhibitors of Candida albicans (strain CBS 562) and compared to the free monosaccharide GlcNAc (N-acetyl glucosamine).

Assay [2] concerns the target T1, human CD 69 receptor (Homo sapiens, UniProt Q07108).
T1 sequence (Q07108 1-199): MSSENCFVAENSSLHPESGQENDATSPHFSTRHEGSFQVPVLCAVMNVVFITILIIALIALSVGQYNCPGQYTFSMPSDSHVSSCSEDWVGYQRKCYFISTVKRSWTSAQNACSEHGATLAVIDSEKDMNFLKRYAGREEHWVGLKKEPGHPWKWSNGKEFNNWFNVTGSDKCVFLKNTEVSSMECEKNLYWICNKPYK
As to the kind of experiment: ELISA type assay, interaction with CD 69 receptor. It counts as binding. How it is done: (§1) In addition, as a model for the interference with the natural killer cells of the immune system, the compounds were evaluated in an ELISA type assay for their interaction with the rat receptor NKRPI and the human CD 69 receptor.
Background: ELISA stands for enzyme-linked immunosorbent assay.

In assay [3] the target is T2, rat receptor NKRPI (Rattus norvegicus, UniProt P27471).
T2 sequence (P27471 1-223): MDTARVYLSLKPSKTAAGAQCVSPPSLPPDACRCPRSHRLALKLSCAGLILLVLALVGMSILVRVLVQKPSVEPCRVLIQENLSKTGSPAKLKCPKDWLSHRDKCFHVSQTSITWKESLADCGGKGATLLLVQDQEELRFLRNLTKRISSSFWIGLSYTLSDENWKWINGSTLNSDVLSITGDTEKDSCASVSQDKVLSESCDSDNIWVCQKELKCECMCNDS
As to the kind of experiment: ELISA type assay, interaction with NKRPI receptor. It is filed as binding. The method, then:
as §1

As usually defined, the inhibition is the percentage by which the read-out fell short of the control. A low value points to a response near the control. What is called IC50 is the concentration needed to halve the response being measured.

Molecule `CC(=O)N[C@H]1C(O)O[C@H](CO)[C@@H](O)[C@@H]1O` (some centres unmarked) [GlcNAc, N-acetyl glucosamine, reference compound] showed an inhibition at 113 µM in assay [1] of 79%. Also, the concentration for half-maximal inhibition (IC50) in assay [2] (read-out: −log IC50 (CD69) (converted)) is 5.01 µM; in assay [3] (read-out: −log IC50 (NKRPI) (converted)) it was 1 µM.

Turning to `COC(=O)c1cc(OCCNC(=O)c2cc(OCc3cn(CCCOC4OC(CO)C(O)C(O)C4NC(C)=O)nn3)cc(OCc3cn(CCCOC4OC(CO)C(O)C(O)C4NC(C)=O)nn3)c2)cc(OCCNC(=O)c2cc(OCc3cn(CCCOC4OC(CO)C(O)C(O)C4NC(C)=O)nn3)cc(OCc3cn(CCCOC4OC(CO)C(O)C(O)C4NC(C)=O)nn3)c2)c1` (centres unmarked) [TETRA], in assay [2], the “−log IC50 (CD69)” value was determined as 7.54. Moreover, the “−log IC50 (NKRPI)” value in assay [3] was found to be 8.5.
